Laboratory results reported in patent publication US20200369626A1 (Washington University, priority 2019, published 2020).

molecular target: T1, S1PR2 (Homo sapiens, UniProt O95136); assay: competitive [^32P]S1P binding assay on cell membranes, S1PR2; settings: Table 5; read-out: IC50 S1PR2
T1 construct: purchased
T1 sequence (O95136 whole entry): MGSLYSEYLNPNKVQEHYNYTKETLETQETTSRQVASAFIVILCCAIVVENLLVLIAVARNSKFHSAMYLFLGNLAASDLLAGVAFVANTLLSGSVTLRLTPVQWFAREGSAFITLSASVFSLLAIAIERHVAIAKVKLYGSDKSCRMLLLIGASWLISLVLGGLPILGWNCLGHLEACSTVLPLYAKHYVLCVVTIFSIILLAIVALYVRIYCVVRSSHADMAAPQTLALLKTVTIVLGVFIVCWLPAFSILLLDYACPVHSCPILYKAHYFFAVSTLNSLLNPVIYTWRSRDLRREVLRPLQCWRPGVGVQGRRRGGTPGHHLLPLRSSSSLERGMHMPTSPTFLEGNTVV

SMILES | IC50 [nM]
CC(C)CC1(O)CCN(c2nc3cc(Oc4ccc(F)cc4)cc([N+](=O)[O-])c3o2)CC1 [TZ57-045] | > 1000
CS(=O)(=O)c1ccc(Oc2nc(NC(=O)N3CCc4ccccc4C3)nc(C(F)(F)F)n2)cc1 [TZ57-047] | > 1000
CCC(CC)CC1(OC)CCN(C(=O)Nc2cc(Oc3ccc(F)cc3)cc(Oc3ccc(S(C)(=O)=O)cc3)c2)CC1 [TZ57-054] | > 1000
CS(=O)(=O)c1ccc(Oc2cc(NC(=O)N(CCO)C3CCCCC3)cc(Oc3ccc(F)cc3)c2)cc1 [TZ57-062] | > 1000
CC(C)C(=O)C1CCN(C(=O)Nc2cc(Oc3ccc(F)cc3)cc(Oc3ccc(S(C)(=O)=O)cc3)c2)CC1 [TZ57-063] | > 1000
CC(C)C(O)C1CCN(C(=O)Nc2cc(Oc3ccc(F)cc3)cc(Oc3ccc(S(C)(=O)=O)cc3)c2)CC1 (stereo not drawn) [TZ57-065] | > 1000
CCC(CC)CC1(O)CCN(C(=O)Nc2cc(Oc3ccc(F)cc3)cc(OC3CCN(C(C)=O)CC3)c2)CC1 [TZ57-080] | > 1000
CCC(CC)CC1(O)CCN(C(=O)Nc2cc(Oc3ccc(F)cc3)cc(OC3CCN(S(C)(=O)=O)CC3)c2)CC1 [TZ57-081] | 292 ± 121
CS(=O)(=O)c1ccc(Oc2cc(NC(=O)N3CC[C@@]4(O)CCCC[C@H]4C3)cc(Oc3ccc(F)cc3)c2)cc1 [TZ57-091] | > 1000
CNC(=O)c1ccc(Oc2cc(NC(=O)N3CC[C@@]4(O)CCCC[C@H]4C3)cc(Oc3ccc(F)cc3)c2)cc1 [TZ57-096] | > 1000
CCC(CC)CC1(O)CCN(C(=O)Nc2ccc(Oc3ccc(F)cc3)cc2)CC1 [TZ57-103] | > 1000
CCC(CC)CC1(O)CCN(C(=O)Nc2ccc(Oc3ccc(S(C)(=O)=O)cc3)cc2)CC1 [TZ57-104] | > 1000
CC(C)CC1(O)CCN(C(=O)Nc2ccc(NC(=O)N3CCC(O)(CC(C)C)CC3)cc2)CC1 [TZ57-112] | > 1000
CC(C)CC1(O)CCN(C(=O)Nc2cccc(NC(=O)N3CCC(O)(CC(C)C)CC3)c2)CC1 [TZ57-115] | > 1000
CC(C)CC1(O)CN(C(=O)Nc2cc(Oc3ccc(F)cc3)cc(Oc3ccc(S(C)(=O)=O)cc3)c2)C1 [TZ57-119] | > 1000
CC(C)CC1(O)CCN(C(=O)Nc2cc(Oc3ccc(F)cc3)cc(Oc3ccc(S(C)(=O)=O)cc3)c2)C1 (stereo not drawn) [TZ57-120] | 122 ± 29
CC(C)CC1(O)CC(C(=O)Nc2cc(Oc3ccc(F)cc3)cc(Oc3ccc(S(C)(=O)=O)cc3)c2)C1 (stereo not drawn) [TZ57-121] | 654 ± 349
CNC(=O)c1ccc(Oc2cc(NC(=O)N3CCC(O)(CC(C)C)C3)cc(Oc3ccc(F)cc3)c2)cc1 (stereo not drawn) [TZ57-122] | 77 ± 16
CCC(CC)CC1(O)CCN(C(=O)Nc2cc(Oc3ccc(B4OC(C)(C)C(C)(C)O4)cc3)cc(Sc3ccc(S(C)(=O)=O)cc3)c2)CC1 [TZ57-150] | > 1000
CCC(CC)CC1(O)CCN(C(=O)Nc2cc(Oc3ccc(S(C)(=O)=O)cc3)cc(Sc3ccc(F)cc3)c2)CC1 [TZ57-155] | 143 ± 30

SMILES | IC50 [nM]
CCC(CC)CC1(O)CCN(C(=O)Nc2cc(Sc3ccc(F)cc3)cc(Sc3ccc(S(C)(=O)=O)cc3)c2)CC1 [TZ57-158] | 67 ± 10
CCC(CC)CC1(O)CCN(C(=O)Nc2cc(C)cc(Oc3ccc(S(C)(=O)=O)cc3)c2)CC1 [TZ59-008] | > 1000
CCC(CC)CC1(O)CCN(C(=O)Nc2cc(C#N)cc(Oc3ccc(S(C)(=O)=O)cc3)c2)CC1 [TZ59-014] | > 1000
CCC(CC)CC1(O)CCN(C(=O)Nc2cc(C(C)C)c3c(C)nn(C)c3n2)CC1 [TZ59-023] | > 1000
CCC(CC)CC1(O)CCN(C(=O)Nc2cc(NC(=O)N3CCC(O)(CC(CC)CC)CC3)cc(C(F)(F)F)c2)CC1 [TZ59-039] | > 1000
CCC(CC)CC1(O)CCN(C(=O)Nc2cc(F)cc(C(F)(F)F)c2)CC1 [TZ59-042] | > 1000
CCC(CC)CC1(O)CCN(C(=O)Nc2cc(OCCF)cc(C(F)(F)F)c2)CC1 [TZ59-044] | > 1000
CCC(CC)CC1(O)CCN(C(=O)Nc2cc(OC)cc(C(F)(F)F)c2)CC1 [TZ59-046] | > 1000
CCC(CC)CC1(O)CCN(C(=O)Nc2cc(N(C(=O)OC(C)(C)C)c3ccc(S(C)(=O)=O)cc3)cc(C(F)(F)F)c2)CC1 [TZ59-061] | > 1000
CCC(CC)CC1(O)CCN(C(=O)Nc2cc(Nc3ccc(S(C)(=O)=O)cc3)cc(C(F)(F)F)c2)CC1 [TZ59-062] | > 1000
CCC(CC)CC1(O)CCN(C(=O)Nc2cc(F)cc(C(O)c3ccc(S(C)(=O)=O)cc3)c2)CC1 (stereo not drawn) [TZ59-080] | > 1000
CCC(CC)CC1(O)CCN(C(=O)Nc2cc(C(=O)c3ccc(C(=O)NC)cc3)cc(C(F)(F)F)c2)CC1 [TZ59-089] | > 1000
CCC(CC)CC1(O)CCN(C(=O)Nc2cc(C(=O)c3ccc(S(C)(=O)=O)cc3)cc(C(F)(F)F)c2)CC1 [TZ59-092] | 700 ± 111
CCC(CC)CC1(O)CCN(C(=O)Nc2cc(C(=O)c3ccc(S(C)(=O)=O)cc3)cc(C(F)(F)F)c2)CC1 [TZ59-093] | > 1000
COc1ccc(-n2c(=O)c3ccccc3n(CC(=O)Nc3cc(Cl)c(OC)cc3OC)c2=O)cc1 [TZ59-110] | > 1000
COc1cc(OC)c(NC(=O)Cn2c(=O)n(CC(=O)Nc3cc(Cl)nc(Cl)c3)c(=O)c3ccccc32)cc1Cl [TZ59-112, N-(5-Chloro-2,4-dimethoxyphenyl)-2-(3-(2-((2,6-dichloropyridin-4-yl)amino)-2-oxoethyl)-2,4-dioxo-3,4-dihydroquinazolin-1(2H)-yl)acetamide] | > 1000
COc1cc(OC)c(NC(=O)Cn2c(=O)n(CC(=O)Nc3ccc(O)cc3)c(=O)c3ccccc32)cc1Cl [TZ59-124, N-(5-Chloro-2,4-dimethoxyphenyl)-2-(3-(2-((4-hydroxyphenyl)amino)-2-oxoethyl)-2,4-dioxo-3,4-dihydroquinazolin-1(2H)-yl)acetamide] | 2.6 ± 0.3
COc1cc(OC)c(NC(=O)Cn2c(=O)n(CC(=O)NCCO)c(=O)c3ccccc32)cc1Cl [TZ59-130, N-(5-Chloro-2,4-dimethoxyphenyl)-2-(3-(2-((2-hydroxyethyl)amino)-2-oxoethyl)-2,4-dioxo-3,4-dihydroquinazolin-1(2H)-yl)acetamide] | 66.6 ± 10.3
COc1cccc(NC(=O)Cn2c(=O)c3ccccc3n(CC(=O)Nc3cc(Cl)c(OC)cc3OC)c2=O)c1 [TZ59-131, N-(5-Chloro-2,4-dimethoxyphenyl)-2-(3-(2-((3-methoxyphenyl)amino)-2-oxoethyl)-2,4-dioxo-3,4-dihydroquinazolin-1(2H)-yl)acetamide] | 39.1 ± 7
COc1cc(OC)c(NC(=O)Cn2c(=O)n(CC(=O)NCCOCCO)c(=O)c3ccccc32)cc1Cl [TZ59-132, N-(5-Chloro-2,4-dimethoxyphenyl)-2-(3-(2-((2-(2-hydroxyethoxy)ethyl)amino)-2-oxoethyl)-2,4-dioxo-3,4-dihydroquinazolin-1(2H)-yl)acetamide] | 91.4 ± 17.6

Next, values leading:

IC50 [nM] | SMILES
204 ± 96 | COc1cc(OC)c(NC(=O)Cn2c(=O)n(CC(=O)NCCOCCOCCO)c(=O)c3ccccc32)cc1Cl [TZ59-133, N-(5-Chloro-2,4-dimethoxyphenyl)-2-(3-(2-((2-(2-(2-hydroxyethoxy)ethoxy)ethyl)amino)-2-oxoethyl)-2,4-dioxo-3,4-dihydroquinazolin-1(2H)-yl)acetamide]
376 ± 91 | CNC(=O)Cn1c(=O)c2ccccc2n(CC(=O)Nc2cc(Cl)c(OC)cc2OC)c1=O [TZ59-135, N-(5-Chloro-2,4-dimethoxyphenyl)-2-(3-(2-(methylamino)-2-oxoethyl)-2,4-dioxo-3,4-dihydroquinazolin-1(2H)-yl)acetamide]
175 ± 13 | COc1cc(OC)c(NC(=O)Cn2c(=O)n(CC(=O)N(C)C)c(=O)c3ccccc32)cc1Cl [TZ59-136, 2-(1-(2-((5-Chloro-2,4-dimethoxyphenyl)amino)-2-oxoethyl)-2,4-dioxo-1,4-dihydroquinazolin-3(2H)-yl)-N,N-dimethylacetamide]
> 1000 | COc1ccccc1NC(=O)Cn1c(=O)[nH]c2ccccc2c1=O [TZ62-004]
> 1000 | COc1cc(OC)c(NC(=O)Cn2c(=O)n(CC(=O)NCCO)c(=O)c3ccccc32)cc1Cl [TZ62-007]
54.9 ± 6 | COc1ccccc1NC(=O)Cn1c(=O)c2ccccc2n(CC(=O)Nc2cc(Cl)ccc2OC)c1=O [TZ62-008]
> 1000 | COc1ccccc1NC(=O)Cn1c(=O)c2ccccc2n(Cc2ccc(F)cc2)c1=O [TZ62-014]
> 1000 | COc1ccccc1NC(=O)Cn1c(=O)c2ccccc2n(CC(=O)c2ccc(F)cc2)c1=O [TZ62-016]
> 1000 | COc1cc(OC)c(NC(=O)CN2C(=O)N(CC(=O)O)Cc3ccccc32)cc1Cl [TZ62-017]
> 1000 | COc1cc(OC)c(NC(=O)CN2C(=O)N(CC(=O)Nc3ccccc3OC)Cc3ccccc32)cc1Cl [TZ62-018]
> 1000 | COc1ccc(C(=O)Cn2c(=O)n(CC(=O)Nc3ccccc3OC)c(=O)c3ccccc32)cc1 [TZ62-019]
> 1000 | COc1ccccc1NC(=O)Cn1c(=O)c2ccccc2n(CC(=O)c2ccccc2OC)c1=O [TZ62-020]
287 ± 69 | COc1ccc(C(=O)Cn2c(=O)n(CC(=O)Nc3ccccc3OC)c(=O)c3ccccc32)cc1Cl [TZ62-026]
293 ± 69 | CCOc1ccc(C(=O)Cn2c(=O)n(CCCC(=O)NC3CCCC3)c(=O)c3cc(Cl)ccc32)cc1Cl [TZ62-038]
> 1000 | COc1ccc(C(=O)Cn2c(=O)n(CCCC(=O)NC3CCCC3)c(=O)c3cc(Cl)ccc32)cc1Cl [TZ62-039]
85 ± 10 | CCOc1ccc(C(=O)Cn2c(=O)n(CCCC(=O)NC3CCCC3)c(=O)c3ccccc32)cc1Cl [TZ62-048]
396 ± 78 | COc1ccc(C(=O)Cn2c(=O)n(CCCC(=O)NC3CCCC3)c(=O)c3ccccc32)cc1Cl [TZ62-049]
> 1000 | CCOc1ccc(C(=O)Cn2c(=O)n(CCCC(=O)N3CCCC3)c(=O)c3ccccc32)cc1Cl [TZ62-050]
> 1000 | COc1ccc(C(=O)Cn2c(=O)n(CCCC(=O)N3CCCC3)c(=O)c3ccccc32)cc1Cl [TZ62-051]
> 1000 | CCOc1ccc(C(=O)Cn2c(=O)n(CCCC(=O)N3CCCC3)c(=O)c3cc(Cl)ccc32)cc1Cl [TZ62-052]
> 1000 | COc1ccc(C(=O)Cn2c(=O)n(CCCC(=O)N3CCCC3)c(=O)c3cc(Cl)ccc32)cc1Cl [TZ62-053]
> 1000 | COc1cc(OC)c(NC(=O)Cn2c(=O)n(Cc3ccccc3)c(=O)c3ccccc32)cc1Cl [TZ62-077]
> 1000 | COc1cc(OC)c(NC(=O)Cn2c(=O)n(CCO)c(=O)c3ccccc32)cc1Cl [TZ62-082]
